According to ChEMBL document CHEMBL1123004, “Synthesis and antidepressant profiles of phenyl-substituted 2-amino- and 2-[(alkoxycarbonyl)amino]-1,4,5,6-tetrahydropyrimidines” (J Med Chem, 1985):
Blank lines part the entries; values can stand above or below the molecule they belong to. Active and inactive are the calls of the source. The calls are words filed in the database; no cut-off is given here.

Columns and labels:
Mus musculus [1] = organism: Mus musculus; experiment: Antagonism of reserpine-induced hypothermia in mice; format: functional
Mus musculus [2] = organism: Mus musculus; experiment: Antagonism of reserpine-induced hypothermia in mice; value given as 0.15-0.6; format: functional
[3] = Lethal dose against mice after peroral administration; format: toxicity, organism-based; settings: mouse, in vivo, po
Mus musculus [4] = organism: Mus musculus; experiment: Antagonism of reserpine-induced hypothermia in mice; Short acting; format: functional
Rattus norvegicus [5] = organism: Rattus norvegicus; experiment: Inhibition of uptake of Dopamine in rat brain slices; format: functional
[6] = Lethal dose against mice after intraperitoneal administration; range = 25-28; format: toxicity, organism-based; settings: mouse, in vivo, ip
Rattus norvegicus [7] = organism: Rattus norvegicus; experiment: Inhibition of uptake of 5-HT in rat brain slices; format: functional
Mus musculus [8] = experiment: In vivo inhibition of uptake of nor epinephrine in mouse heart; value ranges from 0.01-0.14; format: functional
Rattus norvegicus [9] = organism: Rattus norvegicus; experiment: Inhibition of uptake of nor epinephrine in rat brain slices; format: functional
[10] = Lethal dose against mice after peroral administration; range = 111-182; format: toxicity, organism-based; settings: mouse, in vivo, po
Mus musculus [11] = organism: Mus musculus; experiment: animal or person
Mus musculus [12] = organism: Mus musculus; experiment: Antagonism of reserpine-induced hypothermia in mice; I=inactive at 10 mg/ Kg; format: functional, organism-based
Mus musculus [13] = experiment: Antagonism of reserpine-induced hypothermia in mice; I=Inactive at 10 mg/kg; format: functional, organism-based; parameters: dose 10 mg/kg
Mus musculus [14] = experiment: In vivo inhibition of uptake of nor epinephrine in mouse heart; format: functional
[15] = Lethal dose against mice after intraperitoneal administration; range = 31-53; format: toxicity, organism-based; settings: mouse, in vivo, ip
[16] = Lethal dose against mice after peroral administration; RANGE = 50-122; format: toxicity, organism-based; settings: mouse, in vivo, po
Mus musculus [17] = experiment: In vivo inhibition of uptake of nor epinephrine in mouse heart; value ranges from 0.01-0.15; format: functional
Mus musculus [18] = organism: Mus musculus; experiment: Antagonism of reserpine-induced hypothermia in mice value given as 0.01-0.15; format: functional
Mus musculus [19] = experiment: In vivo inhibition of uptake of nor epinephrine in mouse heart; value ranges from 3.1-14.6; format: functional

Structure (SMILES): COC(=O)NC1=NC(c2ccc(OC)cc2)CCN1 (stereo unspecified)
Min oral dose (Mus musculus [1]): 10 mg/kg

Structure (SMILES): COC(=O)NC1=NCC(c2ccccc2)CN1C (stereo unspecified)
Min oral dose (Mus musculus [2]): 0.15 mg/kg

Structure (SMILES): COC(=O)NC1=NCC(c2ccc(Cl)cc2Cl)CN1 (stereo unspecified)
Min oral dose (Mus musculus [1]): 10 mg/kg

Structure (SMILES): CC(C)OC(=O)NC1=NCC(c2ccccc2)CN1 (stereo unspecified)
Min oral dose (Mus musculus [1]): 0.04 mg/kg
LD50 [3]: > 1000 mg/kg

Structure (SMILES): COC(=O)NC1=NC(c2ccccc2)CCN1C (stereo unspecified)
Min oral dose (Mus musculus [1]): 10 mg/kg

Structure (SMILES): COC(=O)NC1=NC(c2ccccc2)CCN1 (stereo unspecified)
Min oral dose (Mus musculus [4]): 2.5 mg/kg

Structure (SMILES): CNC1=NCC(c2ccccc2)CN1 (stereo unspecified)
Min oral dose (Mus musculus [1]): 1 mg/kg

Structure (SMILES): COC(=O)NC1=NCC(c2ccccc2)CN1 (stereo unspecified)
IC50 (Rattus norvegicus [5]): 24 µM
Min oral dose (Mus musculus [1]): 0.0006 mg/kg
LD50 [6]: 27 mg/kg
IC50 (Rattus norvegicus [7]): 160 µM
ED50 (Mus musculus [8]): 0.038 mg/kg
IC50 (Rattus norvegicus [9]): 4.9 µM
LD50 [10]: 142 mg/kg

Structure (SMILES): COC(=O)NC1=NCC(c2c(Cl)cccc2Cl)CN1 (stereo unspecified)
Min oral dose (Mus musculus [2]): 0.6 mg/kg

Structure (SMILES): COC(=O)NC1=NCC(c2cccc(Br)c2)CN1 (stereo unspecified)
Min oral dose (Mus musculus [1]): 1 mg/kg

Structure (SMILES): COC(=O)NC1=NCC(c2ccc(C(C)C)cc2)CN1 (stereo unspecified)
Min oral dose (Mus musculus [1]): 1 mg/kg

Structure (SMILES): CNC1=NCC(c2ccccc2)CN1C (stereo unspecified)
Min oral dose (Mus musculus [1]): 10 mg/kg

Structure (SMILES): COC(=O)NC1=NCC(c2ccc(F)cc2)CN1 (stereo unspecified)
Min oral dose (Mus musculus [1]): 0.04 mg/kg

IC50 (Rattus norvegicus [5]): 12 µM
IC50 (Rattus norvegicus [7]): 12 µM
Structure (SMILES): CNCCCN1c2ccccc2CCc2ccccc21 [DESIPRAMINE]
ED50 (Mus musculus [11]): 1.4 mg/kg

Structure (SMILES): NC1=NCC(c2cccc(Br)c2)CN1 (stereo unspecified)
Min oral dose (Mus musculus [1]): 10 mg/kg

Structure (SMILES): COC(=O)NC1=NC(c2ccc(F)cc2)CCN1 (stereo unspecified)
Min oral dose (Mus musculus [1]): 1 mg/kg

Structure (SMILES): COC(=O)NC1=NC(c2ccccc2C(F)(F)F)CCN1 (stereo unspecified)
Min oral dose (Mus musculus [1]): 10 mg/kg

Structure (SMILES): NC1=NC(c2ccccc2)CCN1 (stereo unspecified)
Min oral dose (Mus musculus [1]): 10 mg/kg

Structure (SMILES): CN1CC(c2ccccc2)CN(C)C1=N (stereo unspecified)
Min oral dose (Mus musculus [1]): 10 mg/kg

Structure (SMILES): CCCOC(=O)NC1=NC(c2ccccc2)CCN1 (stereo unspecified)
Min oral dose (Mus musculus [12]): inactive

Structure (SMILES): COC(=O)NC1=NC(c2ccc(C)cc2)CCN1 (stereo unspecified)
Min oral dose (Mus musculus [13]): inactive

Structure (SMILES): COC(=O)NC1=NCC(c2ccccc2Cl)CN1 (stereo unspecified)
Min oral dose (Mus musculus [1]): 10 mg/kg

Structure (SMILES): COC(=O)N=C1N(C)CC(c2ccccc2)CN1C (stereo unspecified)
Min oral dose (Mus musculus [1]): 10 mg/kg

Structure (SMILES): CN(C)CCC=C1c2ccccc2CCc2ccccc21 [AMITRIPTYLINE]
IC50 (Rattus norvegicus [5]): 12 µM
Min oral dose (Mus musculus [1]): 0.15 mg/kg
IC50 (Rattus norvegicus [7]): 12 µM
IC50 (Rattus norvegicus [9]): 2.5 µM
ED50 (Mus musculus [14]): 4.4 mg/kg

Structure (SMILES): NC1=NCC(c2ccccc2)CN1 (stereo unspecified)
IC50 (Rattus norvegicus [5]): 0.03 µM
IC50 (Rattus norvegicus [7]): 1.6 µM
LD50 [15]: 42 mg/kg
LD50 [16]: 78 mg/kg
ED50 (Mus musculus [17]): 0.038 mg/kg
IC50 (Rattus norvegicus [9]): 0.01 µM
Min oral dose (Mus musculus [18]): 0.15 mg/kg

Structure (SMILES): CCOC(=O)NC1=NCC(c2ccccc2)CN1 (stereo unspecified)
Min oral dose (Mus musculus [1]): 0.04 mg/kg
LD50 [3]: > 1000 mg/kg

IC50 (Rattus norvegicus [5]): 12 µM
IC50 (Rattus norvegicus [7]): 16 µM
IC50 (Rattus norvegicus [9]): 4.6 µM
Structure (SMILES): CN(C)CCCN1c2ccccc2CCc2ccccc21 [IMIPRAMINE]
Min oral dose (Mus musculus [1]): 0.15 mg/kg
ED50 (Mus musculus [19]): 6.7 mg/kg
